This experiment addresses P2X7 receptor (Homo sapiens (Human), UniProt Q99572). The experiment in a line: P2X7 FLIPR assay (BzATP-stimulated calcium fluorescence, antagonist IC50). In kind it is cell-based. As for the experimental part:
This example illustrates representative assays for use in evaluating the test compounds for antagonist activity. Compounds of the present invention were tested in vitro for their ability to act as antagonists to the P2X7receptor. […]
Cells were plated to cell density of approximately 15,000 cells/well in 384-well assay plates (50 μl/well) with 1.5% low serum media (DMEM, 1.5% FBS, 1% L-glut (2 mM), 10 mM HUES, 1% P/S). Cells were plated 24 hours prior to assay. Cells expressing human, rat or mouse P2X7 receptor were assayed in the following manner.
Fluo-4 NW dye mix (Molecular Probes, Inc., Eugene, Oreg., USA) was prepared in buffer (see manufacturer's instructions). Cell plates were removed from the 37° C. incubator, the media discarded and then 30 μL of dye was added to each well. Plates were placed in the 37° C., non-CO2 incubator for 30 minutes and then room temperature for 30 minutes.
Compound mixtures (A) were added to assay plates containing cells and placed at room temperature for 30 minutes, then BzATP (B) was added. Fluorescence was read using the Tetra FLIPR® (Molecular Devices, Inc., Sunnyvale, Calif., USA) and IC50 values were calculated by standard methods to determine antagonist activity.

Among the data in patent US9102591B2, “Benzamides” (H. Lundbeck A/S, priority 2012, dated 2015) are IC50 values, retold here.

SMILES strings stand for the structures.

Sequence of P2X7 receptor (Q99572 whole entry): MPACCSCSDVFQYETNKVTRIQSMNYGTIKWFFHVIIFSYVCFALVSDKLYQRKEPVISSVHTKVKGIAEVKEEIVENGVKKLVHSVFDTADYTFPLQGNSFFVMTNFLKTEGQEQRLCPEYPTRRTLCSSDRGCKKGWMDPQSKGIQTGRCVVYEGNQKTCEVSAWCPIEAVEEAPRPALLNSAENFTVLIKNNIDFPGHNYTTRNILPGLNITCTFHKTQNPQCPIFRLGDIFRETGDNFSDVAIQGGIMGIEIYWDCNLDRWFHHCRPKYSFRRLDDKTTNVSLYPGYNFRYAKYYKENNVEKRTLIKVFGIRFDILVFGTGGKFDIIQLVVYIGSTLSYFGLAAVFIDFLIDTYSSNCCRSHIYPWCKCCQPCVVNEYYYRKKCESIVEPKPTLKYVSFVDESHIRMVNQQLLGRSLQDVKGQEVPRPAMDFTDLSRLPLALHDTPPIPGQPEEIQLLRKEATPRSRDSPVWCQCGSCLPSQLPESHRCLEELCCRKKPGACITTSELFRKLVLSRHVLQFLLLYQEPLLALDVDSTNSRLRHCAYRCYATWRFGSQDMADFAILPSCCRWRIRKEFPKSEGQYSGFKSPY

The term IC50 denotes the concentration that gives 50% inhibition. Consider `O=C(NCC(CC1(C(F)(F)F)CC1)c1ccc(C(F)(F)F)nc1)c1ccccc1Cl` (single isomer, unassigned; (-)) [(−)2-chloro-N-[3-[1-(trifluoromethyl)cyclopropyl]-2-[6-(trif] [(−)2-chloro-N-[3-[1-(trifluoromethyl)cyclopropyl]-2-[6-(trifluoromethyl)-3-pyridyl]propyl]benzamide], for which the IC50 came to 32 nM. Take `O=C(NCC(c1ccccc1)c1ccc(C(F)(F)F)nc1)c1c(Cl)cccc1Cl` (single isomer, unassigned; (+)) [(+)2,6-dichloro-N-[2-phenyl-2-[6-(trifluoromethyl)-3-pyridyl] [(+)2,6-dichloro-N-[2-phenyl-2-[6-(trifluoromethyl)-3-pyridyl]ethyl]benzamide]: the IC50 worked out at 12 nM. Consider `O=C(NCC(CC1(C(F)(F)F)CC1)c1ccc(C(F)(F)F)nc1)c1cccc(Cl)c1Cl` (single isomer, unassigned; (-)) [(−)2,3-dichloro-N-[3-[1-(trifluoromethyl)cyclopropyl]-2-[6-(] [(−)2,3-dichloro-N-[3-[1-(trifluoromethyl)cyclopropyl]-2-[6-(trifluoromethyl)-3-pyridyl]propyl]benzamide], for which the IC50 is 25 nM. Consider `O=C(NCC(CC1CC1)c1cnc(C(F)(F)F)nc1)c1c(Cl)cccc1Cl` (single isomer, unassigned; (+)) [(+)2,6-dichloro-N-[3-cyclopropyl-2-[2-(trifluoromethyl)pyrim] [(+)2,6-dichloro-N-[3-cyclopropyl-2-[2-(trifluoromethyl)pyrimidin-5-yl]propyl]benzamide], for which the IC50 was found to be 3.8 nM. The same measure for `O=C(NCC1(c2cnc(C(F)(F)F)nc2)CCC(F)(F)CC1)c1cccc(Cl)c1Cl` [2,3-dichloro-N-[[4,4-difluoro-1-[2-(trifluoromethyl)pyrimidin-5-yl]cyclohexyl]methyl]benzamide]: 0.95 nM; for `O=C(NCC1(c2ccc(C(F)(F)F)nc2)CCC(F)(F)CC1)c1ccccc1Cl` [2-chloro-N-((4,4-difluoro-1-(6-(trifluoromethyl)pyridin-3-yl)cyclohexyl)methyl)benzamide]: 2 nM; for `COc1ccc(C2(CNC(=O)c3cccc(Cl)c3Cl)CCC(F)(F)CC2)cn1` [2,3-dichloro-N-((4,4-difluoro-1-(6-methoxypyridin-3-yl)cyclohexyl)methyl)benzamide]: 0.96 nM.

Consider `O=C(NCC(c1ccc(F)cc1)c1ccc(C(F)(F)F)nc1)c1ccccc1Cl` (single isomer, unassigned; (+)) [(+)2-chloro-N-[2-(4-fluorophenyl)-2-[6-(trifluoromethyl)-3-p] [(+)2-chloro-N-[2-(4-fluorophenyl)-2-[6-(trifluoromethyl)-3-pyridyl]ethyl]benzamide], for which the IC50 came out at 2.2 nM. As for `O=C(NCC1(c2ccc(F)nc2)CCC(F)(F)CC1)c1ccccc1Cl` [2-chloro-N-((4,4-difluoro-1-(6-fluoropyridin-3-yl)cyclohexyl)methyl)benzamide], the IC50 was 25 nM. As to `O=C(NCC(CC1CC1)c1cnc(C(F)(F)F)nc1)c1ccccc1Cl` (single isomer, unassigned; (+)) [(+)2-chloro-N-[3-cyclopropyl-2-[2-(trifluoromethyl)pyrimidin] [(+)2-chloro-N-[3-cyclopropyl-2-[2-(trifluoromethyl)pyrimidin-5-yl]propyl]benzamide], the IC50 is 38 nM.

With `O=C(NCC1(c2ccc(F)nc2)CCC(F)(F)CC1)c1cccc(Cl)c1F` [3-chloro-N-((4,4-difluoro-1-(6-fluoropyridin-3-yl)cyclohexyl)methyl)-2-fluorobenzamide], the IC50 came to 11 nM. Take `Cc1ncc(C(CNC(=O)c2cccc(F)c2Cl)c2ccncc2)cn1` (stereo not shown) [2-chloro-3-fluoro-N-[2-(2-methylpyrimidin-5-yl)-2-(4-pyridyl)ethyl]benzamide]: the IC50 came out at 860 nM. As for `CS(=O)(=O)c1ccc(C(=O)NCC2(c3ccc(C(F)(F)F)nc3)CCC(F)(F)CC2)c(Cl)c1` [2-chloro-N-((4,4-difluoro-1-(6-(trifluoromethyl)pyridin-3-yl)cyclohexyl)methyl)-4-(methylsulfonyl)benzamide], the IC50 was determined as 1800 nM.

On to `O=C(NCC(c1ccccc1)c1ccc(Cl)cc1)c1cccc(Cl)c1Cl` (stereo not shown) [2,3-dichloro-N-(2-(4-chlorophenyl)-2-phenylethyl)benzamide], for which the IC50 came out at 120 nM. As to `Cc1ccc(C(CNC(=O)c2ccccc2C)CC(C)C)cn1` (stereo not shown) [2-Methyl-N-[4-methyl-2-(6-methyl-pyridin-3-yl)-pentyl]-benzamide], the IC50 is 29 nM. Then `CC(CNC(=O)c1ccccc1Cl)(CC1CC1)c1cnc(C(F)(F)F)nc1` (single isomer, unassigned; (-)) [(−)2-chloro-N-[3-cyclopropyl-2-methyl-2-[2-(trifluoromethyl)] [(−)2-chloro-N-[3-cyclopropyl-2-methyl-2-[2-(trifluoromethyl)pyrimidin-5-yl]propyl]benzamide], with 17 nM; and `Cc1ncc(C2(CNC(=O)c3ccccc3Cl)CCC(F)(F)CC2)cn1` [2-chloro-N-[[4,4-difluoro-1-(2-methylpyrimidin-5-yl)cyclohexyl]methyl]benzamide], with 120 nM; and `O=C(NCC(c1ccccc1)c1ccc(C(F)(F)F)nc1)c1ccc(Cl)cc1Cl` (stereo not shown) [2,4-dichloro-N-(2-phenyl-2-(6-(trifluoromethyl)pyridin-3-yl)ethyl)benzamide], with 25 nM.

On to `Cc1ncc(C(CNC(=O)c2ccccc2Cl)C2CCOCC2)cn1` (single isomer, unassigned; (+)) [(+)2-chloro-N-[2-(2-methylpyrimidin-5-yl)-2-tetrahydropyran-] [(+)2-chloro-N-[2-(2-methylpyrimidin-5-yl)-2-tetrahydropyran-4-yl-ethyl]benzamide], for which the IC50 came out at 970 nM.

For the compound `O=C(NCC(c1ccccc1)c1ccc(C(F)(F)F)nc1)c1c(Cl)cccc1Cl` (single isomer, unassigned; (-)) [(−)2,6-dichloro-N-[2-phenyl-2-[6-(trifluoromethyl)-3-pyridyl] [(−)2,6-dichloro-N-[2-phenyl-2-[6-(trifluoromethyl)-3-pyridyl]ethyl]benzamide], the IC50 was determined as 18 nM. On to `COc1ccc(Cl)c(C(=O)NCC2(c3ccc(F)nc3)CCC(F)(F)CC2)c1` [2-chloro-N-((4,4-difluoro-1-(6-fluoropyridin-3-yl)cyclohexyl)methyl)-5-methoxybenzamide], for which the IC50 worked out at 0.83 nM. With `O=C(NCC(c1ccncc1)c1ccc(C(F)(F)F)nc1)c1ccccc1Cl` (stereo not shown) [2-chloro-N-[2-(4-pyridyl)-2-[6-(trifluoromethyl)-3-pyridyl]ethyl]benzamide], the IC50 is 11 nM. As for `CC(CNC(=O)c1cccc(Cl)c1Cl)(CC1CC1)c1cnc(C(F)(F)F)nc1` (single isomer, unassigned; (+)) [(+)2,3-dichloro-N-[3-cyclopropyl-2-methyl-2-[2-(trifluoromethyl)pyrimidin-5-yl]propyl]benzamide], the IC50 was determined as 74 nM. Then `Cc1ncc(C(CNC(=O)c2cccc(Cl)c2Cl)CC2(C(F)(F)F)CC2)cn1` (single isomer, unassigned; (+)) [(+)2,3-dichloro-N-[2-(2-methylpyrimidin-5-yl)-3-[1-(trifluor] [(+)2,3-dichloro-N-[2-(2-methylpyrimidin-5-yl)-3-[1-(trifluoromethyl)cyclopropyl]propyl]benzamide], with 1.5 nM. In the case of `COc1ccc(C2(CNC(=O)c3ccccc3C)CCCC2)cc1` [N-[1-(4-Methoxy-phenyl)-cyclopentylmethyl]-2-methyl-benzamide], the IC50 worked out at 1400 nM.

Regarding `O=C(NCC1(c2ccc(F)nc2)CCC(F)(F)CC1)c1ccccc1F` [N-((4,4-difluoro-1-(6-fluoropyridin-3-yl)cyclohexyl)methyl)-] [N-((4,4-difluoro-1-(6-fluoropyridin-3-yl)cyclohexyl)methyl)-2-fluorobenzamide], the IC50 amounted to 190 nM. In the case of `O=C(NCC1(c2ccc(F)nc2)CCC(F)(F)CC1)c1cccc(F)c1Cl` [2-chloro-N-((4,4-difluoro-1-(6-fluoropyridin-3-yl)cyclohexyl)methyl)-3-fluorobenzamide], the IC50 was found to be 5.3 nM. Take `O=C(NCC1(c2ccc(F)nc2)CCC(F)(F)CC1)c1cc(C(F)(F)F)ccc1Cl` [2-chloro-N-[[4,4-difluoro-1-(6-fluoro-3-pyridyl)cyclohexyl]methyl]-5-(trifluoromethyl)benzamide]: the IC50 stood at 1.2 nM. As to `O=C(NCC(CC1(C(F)(F)F)CC1)c1ccc(C2CC2)nc1)c1ccccc1Cl` (stereo not shown) [2-chloro-N-[2-(6-cyclopropyl-3-pyridyl)-3-[1-(trifluoromethyl)cyclopropyl]propyl]benzamide], the IC50 was 94 nM. Then `O=C(NCC(CC1CC1)c1ccc(C(F)(F)F)nc1)c1c(Cl)cccc1Cl` (single isomer, unassigned; (+)) [(+)2,6-dichloro-N-[3-cyclopropyl-2-[6-(trifluoromethyl)-3-py] [(+)2,6-dichloro-N-[3-cyclopropyl-2-[6-(trifluoromethyl)-3-pyridyl]propyl]benzamide], with 0.89 nM; and `O=C(NCC(c1ccc(F)cc1)c1cnc(C(F)(F)F)nc1)c1cccc(Cl)c1Cl` (single isomer, unassigned; (-)) [(−)2,3-dichloro-N-[2-(4-fluorophenyl)-2-[2-(trifluoromethyl)] [(−)2,3-dichloro-N-[2-(4-fluorophenyl)-2-[2-(trifluoromethyl)pyrimidin-5-yl]ethyl]benzamide], with 1.2 nM.
